# Experiments:
# Test in all cases: relative viability (nuclei count vs DMSO), 5 days (fraction); higher = more cells survive
# [1] = compound: C1CSC2=C(C(=O)N1)SC3=C2C=C(C=C3)O [kb NB 142-70] + C[C@]1(O)C[C@@H](c2nc(-c3ccc4ccc(-c5ccccc5)nc4c3)c3c(N)nccn32)C1 [Linsitinib] (partner 1 µM)
# How it was run: (§1)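 Nuclei were stained with Hoechst during a one-step fixation (final 0.05% Triton X-100, 1% formaldehyde, 1 ug/ml Hoechst) carried out 5 days after dosing, then counted on 4× images. The cells, lung cancer lines in 1536-well plates, had been dosed by pin tool the day after seeding with one drug alone or a fixed anchor-drug dose plus five library-drug doses (not always all listed) in √10 steps. Relative viability is the nuclei count in treated wells divided by that in vehicle wells, and each value is the median of duplicate plates.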
# [2] = compound: NCC(=O)Nc1ccc(-n2nc(C(F)(F)F)cc2-c2ccc3c(ccc4ccccc43)c2)cc1 + C[C@@H](Oc1cc(-c2cnn(C3CCNCC3)c2)cnc1N)c1c(Cl)ccc(F)c1Cl [Crizotinib] (partner 1 µM)
# How it was run: as §1
# [3] = compound: C1CSC2=C(C(=O)N1)SC3=C2C=C(C=C3)O [kb NB 142-70] + CC(=O)c1c(C)c2cnc(Nc3ccc(N4CCNCC4)cn3)nc2n(C2CCCC2)c1=O [Palbociclib] (partner 0.5 µM)
# How it was run: as §1
# [4] = compound: C1CSC2=C(C(=O)N1)SC3=C2C=C(C=C3)O [kb NB 142-70] + CC1(C)CCC(c2ccc(Cl)cc2)=C(CN2CCN(c3ccc(C(=O)NS(=O)(=O)c4ccc(N[C@H](CCN5CCOCC5)CSc5ccccc5)c(S(=O)(=O)C(F)(F)F)c4)cc3)CC2)C1 [Navitoclax] (partner 0.5 µM)
# How it was run: as §1
# [5] = compound: C1CSC2=C(C(=O)N1)SC3=C2C=C(C=C3)O [kb NB 142-70] + C[C@@H](Oc1cc(-c2cnn(C3CCNCC3)c2)cnc1N)c1c(Cl)ccc(F)c1Cl [Crizotinib] (partner 1 µM)
# How it was run: as §1
Cell Line,relative viability ([1]; first compound 0.1 µM),relative viability ([1]; first compound 1 µM),relative viability ([1]; first compound 3.162 µM),relative viability ([2]; first compound 0.02 µM),relative viability ([2]; first compound 0.06325 µM),relative viability ([2]; first compound 0.2 µM),relative viability ([2]; first compound 0.6325 µM),relative viability ([2]; first compound 2 µM),relative viability ([3]; first compound 0.1 µM),relative viability ([3]; first compound 1 µM),relative viability ([3]; first compound 3.162 µM),relative viability ([4]; first compound 0.1 µM),relative viability ([4]; first compound 1 µM),relative viability ([4]; first compound 3.162 µM),relative viability ([5]; first compound 0.1 µM),relative viability ([5]; first compound 1 µM),relative viability ([5]; first compound 3.162 µM)
201T,1.04,1.05,1.02,1.02,1.02,1.01,1.03,0.984,0.35,0.361,0.394,1.22,1.26,1.17,0.989,1.07,1.03
A549,0.551,0.524,0.499,0.762,0.755,0.774,0.767,0.826,–,–,–,1.27,1.08,0.142,0.762,0.861,0.213
A-427,1.04,1.12,1.01,0.87,0.848,1.04,0.935,0.865,0.505,0.555,0.507,1.03,1.07,0.962,0.937,1.01,0.908
ABC-1,0.976,0.984,0.683,1.33,1.77,–,1.04,0.992,0.425,0.83,0.534,–,–,–,1.02,1.31,0.497
BEN,0.793,0.893,0.724,0.923,0.997,0.837,0.965,0.9,0.443,0.459,0.488,0.0749,0.0596,0.0617,0.791,0.906,0.69
CAL-12T,0.859,0.869,1.03,0.682,0.73,0.591,0.716,0.722,0.48,0.363,0.188,1.34,1.16,1.08,0.605,0.802,0.611
COR-L23,0.953,0.901,0.303,0.825,0.638,0.823,0.703,0.631,0.324,0.317,0.186,0.941,1.08,0.324,0.679,0.818,0.278
COR-L 105,1.17,1,0.94,0.873,0.765,0.803,0.845,1.06,0.432,0.369,0.433,0.746,0.828,0.727,0.564,0.816,0.925
Calu-6,0.93,0.889,0.683,0.862,0.854,0.853,0.838,0.774,–,–,–,0.859,0.891,0.376,0.748,0.839,0.384
ChaGo-K-1,–,–,–,1.14,1.08,1.01,1.05,1.03,0.872,0.803,0.838,1.17,1.11,0.885,1.1,1.16,1.13
EBC-1,0.897,0.952,0.817,0.178,0.236,0.204,0.198,0.25,–,–,–,0.415,0.322,0.22,0.196,0.209,0.155
EKVX,0.969,1.01,1.04,1.2,0.973,0.896,1.06,0.868,0.361,0.393,0.37,0.883,1.01,0.87,0.884,1.04,1.19
EMC-BAC-2,0.805,0.798,0.747,0.737,0.763,0.797,0.712,0.765,0.524,0.553,0.516,1.16,1.28,1.27,0.782,0.893,0.625
EPLC-272H,1.07,1.05,0.599,1.03,0.965,0.881,0.878,0.962,0.324,0.329,0.28,1.26,1.13,0.584,0.851,1.03,0.428
H3255,0.824,0.984,0.905,0.936,0.846,0.884,0.806,0.894,0.323,0.314,0.316,0.498,0.538,0.55,0.97,0.776,0.958
HARA,1.05,0.975,0.631,1.06,1.01,1.04,1.05,1.13,0.216,0.327,0.259,1.15,1.11,1.08,0.922,0.817,0.922
HCC-15,0.86,0.89,0.697,0.817,0.808,0.795,0.773,0.768,0.699,0.699,0.588,0.683,0.683,0.609,0.773,0.85,0.813
HCC-44,0.689,0.716,0.658,0.9,0.828,0.853,0.819,0.74,0.96,1,1.03,1,1.16,1.09,0.777,0.883,0.907
HCC-78,0.491,0.569,0.467,0.361,0.363,0.346,0.337,0.348,0.446,0.443,0.412,0.752,0.742,0.652,0.305,0.372,0.353

Cell Line,relative viability ([1]; first compound 0.1 µM),relative viability ([1]; first compound 1 µM),relative viability ([1]; first compound 3.162 µM),relative viability ([2]; first compound 0.02 µM),relative viability ([2]; first compound 0.06325 µM),relative viability ([2]; first compound 0.2 µM),relative viability ([2]; first compound 0.6325 µM),relative viability ([2]; first compound 2 µM),relative viability ([3]; first compound 0.1 µM),relative viability ([3]; first compound 1 µM),relative viability ([3]; first compound 3.162 µM),relative viability ([4]; first compound 0.1 µM),relative viability ([4]; first compound 1 µM),relative viability ([4]; first compound 3.162 µM),relative viability ([5]; first compound 0.1 µM),relative viability ([5]; first compound 1 µM),relative viability ([5]; first compound 3.162 µM)
HCC-366,0.658,0.462,0.214,0.558,0.589,0.55,0.736,0.456,0.404,0.477,0.356,1.03,1.13,0.823,0.533,0.633,0.463
HCC-827,0.921,0.992,0.902,0.988,1.04,0.966,0.929,0.937,0.525,0.459,0.396,1.04,1.02,1.02,0.918,0.947,0.921
IA-LM,0.621,0.771,0.87,0.775,0.573,1.02,0.797,0.742,–,–,–,0.807,0.843,0.651,0.856,1.25,0.894
LCLC-103H,0.989,1.2,1.15,1.16,1.01,1.1,1.02,0.977,0.47,0.475,0.504,–,–,–,0.997,1.12,1.03
NCI-H358,0.654,0.522,0.146,0.622,0.557,0.572,0.56,0.761,0.127,0.136,0.0896,–,–,–,0.481,0.493,0.136
NCI-H522,–,–,–,–,–,–,–,–,0.988,0.789,0.77,–,–,–,–,–,–
NCI-H596,1.13,1.02,0.837,1,1.12,1.01,1.05,0.943,–,–,–,1,0.982,0.866,1.03,1.03,0.933
NCI-H650,0.908,0.878,0.755,0.728,0.809,0.72,0.653,0.802,0.362,0.422,0.394,–,–,–,0.715,0.683,0.449
NCI-H661,0.561,0.607,0.602,1.16,0.905,1.11,–,1.01,0.379,0.363,0.342,–,–,–,1.05,0.969,1.22
NCI-H1299,1.07,1.07,1.14,0.97,0.969,0.991,0.944,1,–,–,–,1.07,1.13,1.1,0.928,0.969,0.893
NCI-H1395,1.15,1.26,0.765,–,–,–,–,–,0.582,0.685,0.631,1.26,1.23,0.826,–,–,–
NCI-H1563,1.19,1.19,1.28,0.887,0.91,0.881,0.835,0.997,–,–,–,–,–,–,0.864,0.853,0.839
NCI-H1648,–,–,–,–,–,–,–,–,0.276,0.275,0.206,–,–,–,–,–,–
NCI-H1650,–,–,–,1.11,1.14,0.836,1.08,1.19,0.362,0.39,0.321,1.25,1.24,0.89,0.833,1.01,1.08
NCI-H1703,0.975,0.625,0.823,0.593,0.657,0.924,0.621,0.951,–,–,–,1.04,1.05,0.93,0.681,0.866,0.489
NCI-H1793,0.832,1.08,0.905,–,–,–,–,–,0.301,0.329,0.357,0.45,0.455,0.24,–,–,–
NCI-H2170,–,–,–,1.24,1.22,1.1,1.22,1.22,0.413,0.44,0.392,0.564,0.674,0.432,1.21,1.22,1.04
NCI-H2342,–,–,–,–,–,–,–,–,0.547,0.497,0.589,–,–,–,–,–,–
SW 900,–,–,–,–,–,–,–,–,0.553,0.463,0.458,–,–,–,–,–,–

# Reference: the supplement of paper PMC10307832
